Data published in patent US8987250B2 (Gilead Sciences, Inc., priority 2012, dated 2015).

These compounds were tested on HIV-IIIb (assay: Test A: Antiviral Assay in MT4 Cells). Conditions: Human immunodeficiency virus 1, IIIB, MT4, 120 h, Table 1; MT-4 cells infected with HIV-IIIb, 5 days of incubation, CellTiter-Glo; read-out: EC50.
Format: cell-based
Method in brief: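 Read-out: CellTiter-Glo chemiluminescence after 5-day incubation at 37 °C. Compounds tested as 3-fold serial dilutions (10 concentrations, quadruplicate) in RPMI 1640 with 10% FBS, on MT-4 cells pre-infected at 37 °C with HIV-IIIb at 0.004 m.o.i.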

Q: For `Cc1cc2nc(-c3ccnc(-c4ccc5c(c4)c(C4CC4)nn5C)c3)sc2c(-c2ccc(Cl)cc2)c1[C@H](OC(C)(C)C)C(=O)O` [Compound 139], which EC50 is on record?
A: 61 nM

Q: Which EC50 does the source give for `COc1cncc(-c2cc(-c3nc4cc(C)c([C@H](OC(C)(C)C)C(=O)O)c(-c5ccc(Cl)cc5)c4s3)ccn2)c1` [Compound 105, (S)-2-tert-butoxy-2-(7-(4-chlorophenyl)-2-(5′-methoxy-2,3′-bipyridin-4-yl)-5-methylbenzo[d]thiazol-6-yl)acetic acid] here?
A: 16 nM

Q: For `Cc1cc2nc(-c3cccc(-c4ccccc4)c3F)sc2c(-c2ccc(Cl)cc2)c1[C@H](OC(C)(C)C)C(=O)O` [Compound 162], which EC50 is on record?
A: 350 nM

Q: How did the EC50 turn out when `Cc1cc2nc(-c3cncc(-c4ccc5c(c4)ncn5C)c3)sc2c(-c2ccc(Cl)cc2)c1[C@H](OC(C)(C)C)C(=O)O` [Compound 157] was run?
A: 29 nM

Q: `Cc1cc2nc(N3CC(C)C3)sc2c(-c2ccc3c4c(ccnc24)CCO3)c1[C@H](OC(C)(C)C)C(=O)O` (atropisomer, axis not shown) [Compound 57, (S)-2-tert-butoxy-2-((S)-7-(2,3-dihydropyrano[4,3,2-de]quinolin-7-yl)-5-methyl-2-(3-methylazetidin-1-yl)benzo[d]thiazol-6-yl)acetic acid] was tested. Which EC50 did it give?
A: 147 nM

Q: How did the EC50 turn out when `Cc1cc2nc(-c3cccc(-c4cnc(N(C)C)nc4)c3)sc2c(-c2ccc(Cl)cc2)c1[C@H](OC(C)(C)C)C(=O)O` [Compound 142] was run?
A: 48 nM

Q: For `Cc1cc2nc(N3CCC(c4ccccc4)C3)sc2c(-c2ccc(Cl)cc2)c1[C@H](OC(C)(C)C)C(=O)O` (some centres unmarked) [Compound 126], which EC50 is on record?
A: 722 nM

Q: `Cc1cc2nc(-c3cnc4cn(C)nc4c3)sc2c(-c2ccc(Cl)cc2)c1[C@H](OC(C)(C)C)C(=O)O` [Compound 132] was tested. Which EC50 did it give?
A: 12 nM

Same assay, conditions: Human immunodeficiency virus 1, IIIB, MT4, 120 h, Table 2; MT-4 cells infected with HIV-IIIb, 5 days of incubation, CellTiter-Glo; read-out: EC50

Q: How did the EC50 turn out when `Cc1cc2nc(-c3ncc4c(n3)c(C)nn4C)sc2c(-c2ccc(Cl)cc2)c1[C@H](OC(C)(C)C)C(=O)O` [Compound 487, (S)-2-tert-butoxy-2-(7-(4-chlorophenyl)-2-(1,3-dimethyl-1H-pyrazolo[4,3-d]pyrimidin-5-yl)-5-methylbenzo[d]thiazol-6-yl)acetic acid] was run?
A: 12 nM

Q: `Cc1cc2nc(-c3ccnc(-c4ccc5ccc(=O)n(C)c5c4)c3)sc2c(-c2ccc(Cl)cc2)c1[C@H](OC(C)(C)C)C(=O)O` [Compound 452] was tested. Which EC50 did it give?
A: 16 nM

Q: `Cc1cc2nc(-c3ccnc(-c4cc(C)c5[nH]ncc5c4)c3)sc2c(-c2ccc(Cl)cc2)c1[C@H](OC(C)(C)C)C(=O)O` [Compound 422] was tested. Which EC50 did it give?
A: 32 nM

Q: How did the EC50 turn out when `Cc1cc2nc(-c3cc4cn(C)nc4cn3)sc2c(-c2ccc(Cl)cc2)c1[C@H](OC(C)(C)C)C(=O)O` [Compound 364] was run?
A: 9 nM

Q: With `Cc1cc2nc(-c3ccc4cnn(C)c4c3)sc2c(-c2ccc(Cl)cc2)c1[C@H](OC(C)(C)C)C(=O)O` [Compound 430] as the compound, how does the EC50 read?
A: 29 nM

Q: For `Cc1cc2nc(-c3ncc(N4CCN(C(C)C)CC4)s3)sc2c(-c2ccc(Cl)cc2)c1[C@H](OC(C)(C)C)C(=O)O` [Compound 486, (S)-2-tert-butoxy-2-(7-(4-chlorophenyl)-2-(5-(4-isopropylpiperazin-1-yl)thiazol-2-yl)-5-methylbenzo[d]thiazol-6-yl)acetic acid], which EC50 is on record?
A: 31 nM

Q: With `Cc1cc2nc(-c3ccnc(-c4ccc5c(cnn5C(C)C)c4)c3)sc2c(-c2ccc(Cl)cc2)c1[C@H](OC(C)(C)C)C(=O)O` [Compound 374] as the compound, how does the EC50 read?
A: 45 nM

Q: With `Cc1cc2nc(-c3ccnc(-c4cnn(C(C)(C)C)c4)n3)sc2c(-c2ccc(Cl)cc2)c1[C@H](OC(C)(C)C)C(=O)O` [Compound 346] as the compound, how does the EC50 read?
A: 11 nM

Q: With `Cc1cc2nc(-c3cccc(-c4ccc5c(n4)N(C)CCO5)c3)sc2c(-c2ccc(Cl)cc2)c1[C@H](OC(C)(C)C)C(=O)O` [Compound 395] as the compound, how does the EC50 read?
A: 61 nM

Q: With `Cc1cc2nc(N3CCO[C@H](c4ccc5c(cnn5C)c4)C3)sc2c(-c2ccc(Cl)cc2)c1[C@H](OC(C)(C)C)C(=O)O` [Compound 325, (S)-2-tert-butoxy-2-(7-(4-chlorophenyl)-5-methyl-2-((R)-2-(1-methyl-1H-indazol-5-yl)morpholino)benzo[d]thiazol-6-yl)acetic acid] as the compound, how does the EC50 read?
A: 10 nM

Q: How did the EC50 turn out when `Cc1cc2nc(-c3ccnc(-c4ccc5[nH]ncc5c4C)c3)sc2c(-c2ccc(Cl)cc2)c1[C@H](OC(C)(C)C)C(=O)O` [Compound 421] was run?
A: 20 nM

Q: How did the EC50 turn out when `Cc1cc2nc(-c3ccnc(N4CCN(C)[C@@H](C)C4)n3)sc2c(-c2ccc(Cl)cc2)c1[C@H](OC(C)(C)C)C(=O)O` [Compound 468, (S)-2-tert-butoxy-2-(7-(4-chlorophenyl)-2-(2-((S)-3,4-dimethylpiperazin-1-yl)pyrimidin-4-yl)-5-methylbenzo[d]thiazol-6-yl)acetic acid] was run?
A: 8 nM

Q: `Cc1cc2nc(-c3ccnc(-c4cn(C)c5ncc(F)cc45)c3)sc2c(-c2ccc(Cl)cc2)c1[C@H](OC(C)(C)C)C(=O)O` [Compound 382] was tested. Which EC50 did it give?
A: 91 nM

Q: With `Cc1cc2nc(-c3ccnc(-c4cc5cnn(C)c5cn4)c3)sc2c(-c2ccc(Cl)cc2)c1[C@H](OC(C)(C)C)C(=O)O` [Compound 369] as the compound, how does the EC50 read?
A: 8 nM

Q: Which EC50 does the source give for `Cc1cc2nc(-c3cncc(N4CCN(C(C)C)CC4)c3)sc2c(-c2ccc(Cl)cc2)c1[C@H](OC(C)(C)C)C(=O)O` [Compound 481, (S)-2-tert-butoxy-2-(7-(4-chlorophenyl)-2-(5-(4-isopropylpiperazin-1-yl)pyridin-3-yl)-5-methylbenzo[d]thiazol-6-yl)acetic acid] here?
A: 17 nM

Q: For `Cc1cc2nc(-c3cnnc(-c4ccc5c(cnn5C)c4)c3)sc2c(-c2ccc(Cl)cc2)c1[C@H](OC(C)(C)C)C(=O)O` [Compound 201, (S)-2-tert-butoxy-2-(7-(4-chlorophenyl)-5-methyl-2-(6-(1-methyl-1H-indazol-5-yl)pyridazin-4-yl)benzo[d]thiazol-6-yl)acetic acid], which EC50 is on record?
A: 7 nM

Q: With `Cc1cc2nc(-c3ccnc(-c4ccc5c(c4)OCC(=O)N5)c3)sc2c(-c2ccc(Cl)cc2)c1[C@H](OC(C)(C)C)C(=O)O` [Compound 391] as the compound, how does the EC50 read?
A: 11 nM

Q: For `CCN1CCN(c2cc(-c3nc4cc(C)c([C@H](OC(C)(C)C)C(=O)O)c(-c5ccc(Cl)cc5)c4s3)ccn2)CC1` [Compound 220, (S)-2-tert-butoxy-2-(7-(4-chlorophenyl)-2-(2-(4-ethylpiperazin-1-yl)pyridin-4-yl)-5-methylbenzo[d]thiazol-6-yl)acetic acid], which EC50 is on record?
A: 43 nM

Q: Which EC50 does the source give for `Cc1cc2nc(-c3cnc4c(c3)c(C)cn4C)sc2c(-c2ccc(Cl)cc2)c1[C@H](OC(C)(C)C)C(=O)O` [Compound 198, (S)-2-tert-butoxy-2-(7-(4-chlorophenyl)-2-(1,3-dimethyl-1H-pyrrolo[2,3-b]pyridin-5-yl)-5-methylbenzo[d]thiazol-6-yl)acetic acid] here?
A: 39 nM

Q: With `Cc1cc2nc(-c3ccnc(N4CCN(C(C)C)[C@H](C)C4)n3)sc2c(-c2ccc(Cl)cc2)c1[C@H](OC(C)(C)C)C(=O)O` [Compound 471, (S)-2-tert-butoxy-2-(7-(4-chlorophenyl)-2-(2-((R)-4-isopropyl-3-methylpiperazin-1-yl)pyrimidin-4-yl)-5-methylbenzo[d]thiazol-6-yl)acetic acid] as the compound, how does the EC50 read?
A: 3 nM

Same assay, conditions: Table 2; MT-4 cells infected with HIV-IIIb, 5 days of incubation, CellTiter-Glo; read-out: EC50

Q: “(S)-2-tert-butoxy-2-(7-(4-chlorophenyl)-2-(3-(4,4-dimethylpiperazin-1-ium-1-yl)-1-methyl-1H-indazol-5-yl)-5-methylbenzo[d]thiazol-6-yl)acetate [Compound 494]” was tested. Which EC50 did it give?
A: 2880 nM
